Measurements published in ChEMBL document CHEMBL1201862, “PubChem BioAssay data set” (2004).
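Test compounds were applied to cells in 96-well plates for 48 hours at 5 doses. Here, GI50 denotes the concentration required for 50% inhibition of growth.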 Calls of active or inactive are those of the source. Rule as the data show it: active = GI50 up to about 1.1 µM and inactive = higher.

Assays:
Experiment in all cases: NCI anticancer screen, dose series, 48 h
[1] = test system: 786-0
[2] = test system: A498
[3] = test system: ACHN
[4] = test system: EKVX
[5] = test system: HCC 2998
[6] = test system: HT-29
[7] = test system: K562
[8] = test system: NCI-H460
[9] = test system: NCI-H522
[10] = test system: OVCAR-4
[11] = test system: SF-268
[12] = test system: SF-295
[13] = test system: SK-MEL-2
[14] = test system: SNB-19
[15] = test system: SNB-75
[16] = test system: SW-620
[17] = test system: UACC-257
[18] = test system: UACC-62

Measured: GI50

CCN(CC)C(=O)COc1ccc(Br)cc1Br
inactive: [1] > 100 µM | [2] > 100 µM | [3] > 100 µM | [4] 7.91 µM | [5] > 100 µM | [6] > 100 µM | [7] > 100 µM | [8] > 100 µM | [9] 50.1 µM | [10] > 100 µM | [11] > 100 µM | [12] > 100 µM | [13] > 100 µM | [14] > 100 µM | [15] 83.6 µM | [16] > 100 µM | [17] > 100 µM | [18] 38.8 µM

CC1(C)CCC[C@@]2(C)C1CCC1(C)C(CCc3ccoc3)/C(=C/OS(=O)(=O)O)CCC12 (stereo not given in full)
inactive: [1] > 100 µM | [2] > 100 µM | [3] > 100 µM | [4] > 100 µM | [5] > 100 µM | [6] 40.9 µM | [7] 31.2 µM | [8] > 100 µM | [10] 52.5 µM | [11] > 100 µM | [12] 49.9 µM | [13] 58.5 µM | [14] > 100 µM | [15] > 100 µM | [16] 54.3 µM | [17] > 100 µM | [18] > 100 µM

COC(=O)C(C(=O)C(=O)Nc1ccc(C)cc1)c1nc2ccc([N+](=O)[O-])cc2nc1O (stereo not given)
inactive: [1] > 100 µM | [2] > 100 µM | [3] > 100 µM | [4] > 100 µM | [5] > 100 µM | [6] > 100 µM | [7] 30.1 µM | [8] > 100 µM | [9] 6.93 µM | [10] > 100 µM | [11] > 100 µM | [12] > 100 µM | [13] > 100 µM | [14] > 100 µM | [15] > 100 µM | [16] > 100 µM | [17] > 100 µM | [18] 85.7 µM

CC(C)(c1ccc(C=O)o1)c1ccc(C(C)(C)c2ccc(C=O)o2)o1
inactive: [1] > 100 µM | [2] > 100 µM | [3] > 100 µM | [4] > 100 µM | [5] > 100 µM | [6] > 100 µM | [7] > 100 µM | [8] > 100 µM | [9] > 100 µM | [10] > 100 µM | [11] > 100 µM | [12] > 100 µM | [13] > 100 µM | [14] > 100 µM | [16] > 100 µM | [17] > 100 µM

O=S(O)CCCSSc1ccccc1
inactive: [1] 66.8 µM | [2] 51.9 µM | [3] 48 µM | [4] 36.1 µM | [5] 76.9 µM | [6] 46.9 µM | [7] 38.1 µM | [8] 78.3 µM | [9] 18.3 µM | [10] 98.4 µM | [11] 18.7 µM | [12] 53.2 µM | [13] 74.6 µM | [14] 96.8 µM | [15] 20.8 µM | [16] 47.3 µM | [17] 40.2 µM | [18] 36.6 µM

COc1cccc(NC(=O)C(=O)C(C(C)=O)c2nc3ccc(Cl)cc3nc2O)c1 (stereo not given)
inactive: [1] > 100 µM | [2] > 100 µM | [3] > 100 µM | [4] > 100 µM | [5] > 100 µM | [6] > 100 µM | [7] > 100 µM | [8] > 100 µM | [10] > 100 µM | [11] > 100 µM | [12] > 100 µM | [13] > 100 µM | [14] > 100 µM | [15] 54.7 µM | [16] > 100 µM | [17] > 100 µM | [18] > 100 µM

CCCc1c(C(=O)OCC)[nH]c(C(=O)CCC(=O)c2[nH]c(C(=O)OCC)c(CCC)c2C(=O)OCC)c1C(=O)OCC
inactive: [1] 54.6 µM | [2] > 100 µM | [3] > 100 µM | [4] > 100 µM | [5] > 100 µM | [6] > 100 µM | [7] > 100 µM | [8] > 100 µM | [9] > 100 µM | [10] 48.3 µM | [11] > 100 µM | [12] > 100 µM | [13] 68.9 µM | [14] > 100 µM | [15] 19.1 µM | [16] > 100 µM | [17] > 100 µM | [18] > 100 µM

O=C1C(Br)=C[C@H]2C3C=CC(Br)(C3=O)[C@@H]12 (stereo not given in full)
inactive: [1] 14.7 µM | [2] 19 µM | [3] 14.6 µM | [4] 15.4 µM | [5] 13.3 µM | [6] 10.5 µM | [7] 7.62 µM | [9] 5.85 µM | [10] 15.7 µM | [11] 12.9 µM | [12] 18 µM | [13] 14.3 µM | [14] 14.1 µM | [15] 22.5 µM | [16] 9.18 µM | [17] 12.2 µM | [18] 3.82 µM

Cc1ccc(S(=O)(=O)SCc2ccccc2CSS(=O)(=O)c2ccc(C)cc2)cc1
inactive: [1] 18.2 µM | [2] 91.2 µM | [3] 29 µM | [4] 44.4 µM | [5] 75.2 µM | [6] 22.7 µM | [7] 15.7 µM | [8] 42.2 µM | [9] 10.9 µM | [10] 18.7 µM | [11] 36.6 µM | [12] 79.8 µM | [14] > 100 µM | [15] 57.7 µM | [16] 17.1 µM | [17] 71.9 µM | [18] 15.8 µM

O=C1CCC(=O)c2sccc2N1
inactive: [1] > 100 µM | [2] > 100 µM | [3] > 100 µM | [4] > 100 µM | [5] > 100 µM | [6] > 100 µM | [7] > 100 µM | [8] > 100 µM | [9] > 100 µM | [10] > 100 µM | [11] > 100 µM | [12] > 100 µM | [13] > 100 µM | [14] > 100 µM | [15] > 100 µM | [16] > 100 µM | [17] > 100 µM

CCCn1c(SCC)c2cc3cc4ccccc4cc3cc2c1-c1nc(F)nc(F)n1
inactive: [1] > 100 µM | [3] > 100 µM | [4] > 100 µM | [5] > 100 µM | [6] > 100 µM | [7] > 100 µM | [8] > 100 µM | [9] > 100 µM | [10] > 100 µM | [11] > 100 µM | [12] > 100 µM | [13] > 100 µM | [14] > 100 µM | [15] > 100 µM | [16] > 100 µM | [17] > 100 µM

N#CC(C#N)C(c1ccccc1)c1ccccc1
inactive: [1] > 100 µM | [2] > 100 µM | [3] > 100 µM | [5] > 100 µM | [7] 91 µM | [8] > 100 µM | [9] > 100 µM | [10] > 100 µM | [11] > 100 µM | [12] > 100 µM | [13] > 100 µM | [14] > 100 µM | [16] > 100 µM | [17] > 100 µM | [18] > 100 µM

CCOc1ccc(NC(=O)C2=C(C)NC(C)=C(C(=O)Nc3ccc(OCC)cc3)C2c2ccccc2)cc1
inactive: [1] 88.7 µM | [2] > 100 µM | [3] 74.6 µM | [4] > 100 µM | [5] > 100 µM | [6] > 100 µM | [7] 38.5 µM | [8] > 100 µM | [9] 38.3 µM | [10] > 100 µM | [11] 98.6 µM | [12] > 100 µM | [13] 56.8 µM | [14] > 100 µM | [15] 95.7 µM | [16] > 100 µM | [17] > 100 µM

CN(C)c1ccc(-c2nc(N)nc3c2CCCC3)cc1
inactive: [1] 82 µM | [2] 35.6 µM | [3] 26.4 µM | [4] 28.4 µM | [5] 80 µM | [7] 29.3 µM | [8] 65.2 µM | [9] 25.2 µM | [11] 47.2 µM | [12] 38.5 µM | [13] 56.8 µM | [14] > 100 µM | [15] 42 µM | [16] > 100 µM | [18] 44.7 µM

CC(C)[C@@H](COC(C)(C)C)/N=C/N1CCc2c([nH]c3ccccc23)C1
inactive: [1] > 100 µM | [2] > 100 µM | [3] > 100 µM | [4] > 100 µM | [5] 80 µM | [6] > 100 µM | [7] > 100 µM | [8] > 100 µM | [9] > 100 µM | [10] > 100 µM | [11] > 100 µM | [12] > 100 µM | [13] > 100 µM | [14] > 100 µM | [15] > 100 µM | [16] > 100 µM | [18] > 100 µM

O=C(N/C(=C\c1ccccc1O)c1nc2ccccc2[nH]1)c1ccccc1
inactive: [1] 48.1 µM | [2] 62.4 µM | [3] 73.8 µM | [4] 37.8 µM | [5] > 100 µM | [6] > 100 µM | [7] > 100 µM | [8] > 100 µM | [9] 45.2 µM | [10] > 100 µM | [11] 37.3 µM | [13] 74.1 µM | [14] 39.7 µM | [15] 12.8 µM | [16] > 100 µM | [17] > 100 µM | [18] > 100 µM
